Like-named read-outs stand apart in the source and are kept apart here.
Columns and labels:
HBV RT = HBV RT (Hepatitis B virus genotype C subtype adr, UniProt P12933); assay: T/P and substrate binding assay (cell-free), poly(rA)/oligo(dT) with DIG-dUTP; conditions: for Inhibitory effect on T/P and substrate binding activity of HBV RT: poly(rA)/oligo(dT); for inhibition at 10 µM / inhibition at 100 µM: read-out: % Inhibition to HBV RT of cell-free assay
[1] = system: NTCP-expressing HepG2 (NTCP/G2) cells; assay: Cytotoxicity, CellTiter-Glo, NTCP/G2 cells; type: cell-based; conditions: day 9
HB611 cells = assay: Cytotoxicity, CellTiter-Glo, HB611 cells; type: cell-based, human
HBeAg [2] = assay: HBeAg ELISA of supernatant, HBV infection system NTCP/G2; type: cell-based, Hepatitis B virus; conditions: NTCP/G2, day 9
HBV [3] = assay: Intracellular core-associated HBV DNA by qPCR, NTCP/G2 infection system; type: cell-based, Hepatitis B virus
HBsAg = HBsAg ELISA of supernatant, HB611 cells; type: cell-based, Hepatitis B virus; conditions: suramin, KB-R7943, compound 3 up to 50, 20, and 25 µM, respectively
HBeAg [4] = assay: HBeAg ELISA of supernatant, HB611 cells; type: cell-based, Hepatitis B virus; conditions: suramin, KB-R7943, compound 3 up to 50, 20, and 25 µM, respectively
HBV [5] = assay: Intracellular core-associated HBV DNA by qPCR, HB611 cells; type: cell-based, Hepatitis B virus
HBV [6] = assay: microbe, parasite or virus in culture; type: cell-based, Hepatitis B virus; conditions: HB611 cells, read-out: IC50 for extracellular HBV production
[7] = Cytotoxicity, CellTiter-Glo, NTCP/G2 cells; type: cell-based; conditions: human, NTCP-expressing HepG2 (NTCP/G2) cells, day 9
[8] = Cytotoxicity, CellTiter-Glo, HB611 cells; type: cell-based, human; conditions: human; HB611 cells, day 9
HBV cccDNA = assay: cccDNA by qPCR (Hirt DNA), NTCP/G2 infection system; type: cell-based, Hepatitis B virus; conditions: NTCP/G2 cells

HBV RT, sequence (P12933 347-690): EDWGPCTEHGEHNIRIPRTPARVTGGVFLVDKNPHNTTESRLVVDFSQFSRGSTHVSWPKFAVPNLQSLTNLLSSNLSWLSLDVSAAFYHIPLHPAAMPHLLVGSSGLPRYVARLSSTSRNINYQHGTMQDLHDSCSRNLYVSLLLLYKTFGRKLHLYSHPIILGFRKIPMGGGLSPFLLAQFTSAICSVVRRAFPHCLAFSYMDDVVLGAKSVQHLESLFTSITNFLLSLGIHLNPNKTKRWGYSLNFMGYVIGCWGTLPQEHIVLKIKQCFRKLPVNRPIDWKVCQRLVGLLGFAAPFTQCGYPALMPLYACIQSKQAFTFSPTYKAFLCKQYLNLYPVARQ

For Cc1cc2c(C(C)C)c(O)c(O)c(C=O)c2c(O)c1-c1c(C)cc2c(C(C)C)c(O)c(O)c(C=O)c2c1O [Gossypol], the “Inhibitory effect on T/P and substrate binding activity of HBV RT” value (HBV RT; 10 µM compound) was “showed the higher inhibitory effects”, the inhibition at 10 µM (HBV RT; 10 µM compound) was 92% and the inhibition at 100 µM (HBV RT; 100 µM compound) was 97%.
For N=C(N)SCCc1ccc(OCc2ccc([N+](=O)[O-])cc2)cc1 [KB-R7943], the “Inhibitory effect on T/P and substrate binding activity of HBV RT” value (HBV RT; 10 µM compound) was “showed the higher inhibitory effects”, the CC50 [1] was 37.4 µM and the CC50 (HB611 cells) was 41.9 µM. The “HBeAg expression in the culture supernatant” value (HBeAg [2]) was “did not change”, the “putative IC50, core-associated HBV DNA” value (HBV [3]; NTCP/G2, day 9) was 7.37 µM and the “HBsAg secretion” value (HBsAg) was “no changes”. For the same molecule, the “HBeAg secretion” value (HBeAg [4]) was “no changes”, the “Core-associated DNA” value (HBV [5]; HB611 cells) was “modest decrease” and the IC50 (HBV [6]) was 3.7 µM.
With O=C(Nc1cccc(C(=O)Nc2ccc(S(=O)(=O)O)c3cc(S(=O)(=O)O)cc(S(=O)(=O)O)c23)c1)Nc1cccc(C(=O)Nc2ccc(S(=O)(=O)O)c3cc(S(=O)(=O)O)cc(S(=O)(=O)O)c23)c1 [NF023] the “% Inhibition to HBV RT of cell-free assay” value (HBV RT; 10 µM compound) was 26% and the “% Inhibition to HBV RT of cell-free assay” value (HBV RT; 100 µM compound) was 96%.
Molecule Nc1c(S(=O)(=O)O)cc(Nc2ccc(Nc3nc(Cl)nc(Nc4cccc(S(=O)(=O)O)c4)n3)c(S(=O)(=O)O)c2)c2c1C(=O)c1ccccc1C2=O [Reactive blue 2] has an inhibition at 10 µM (HBV RT; 10 µM compound) of 53% and an inhibition at 100 µM (HBV RT; 100 µM compound) of 100%.
Molecule CC(=O)c1c(O)c(C)c(O)c(Cc2c(O)c3c(c(C(=O)/C=C/c4ccccc4)c2O)OC(C)(C)C=C3)c1O [Rottlerin] has an inhibition at 10 µM (HBV RT) of 35% and an inhibition at 100 µM (HBV RT) of 98%.
In the case of Cc1ccc(C(=O)Nc2ccc(S(=O)(=O)O)c3cc(S(=O)(=O)O)cc(S(=O)(=O)O)c23)cc1NC(=O)c1cccc(NC(=O)Nc2cccc(C(=O)Nc3cc(C(=O)Nc4ccc(S(=O)(=O)O)c5cc(S(=O)(=O)O)cc(S(=O)(=O)O)c45)ccc3C)c2)c1 [Suramin], the “Inhibitory effect on T/P and substrate binding activity of HBV RT” value (HBV RT; 10 µM compound) is reported as “showed the higher inhibitory effects”, the inhibition at 10 µM (HBV RT; 10 µM compound) is reported as 69% and the inhibition at 100 µM (HBV RT; 100 µM compound) is reported as 97%. For the same molecule, the CC50 at 9 days [7] was greater than 200 µM, the CC50 at 9 days [8] was 168 µM and the “HBeAg expression in the culture supernatant” value (HBeAg [2]) was “reduced”. For the same molecule, the IC50 (HBV [3]; Hepatitis B virus, 216 h, read-out: putative IC50, core-associated HBV DNA) was 0.27 µM, the “cccDNA levels” value (HBV cccDNA) was “reduced” and the “HBsAg secretion” value (HBsAg) was “no changes”. For the same molecule, the “HBeAg secretion” value (HBeAg [4]) was “no changes”, the IC50 (HBV [5]; Hepatitis B virus, HB611, read-out: IC50 for core-associated DNA) was 26.4 µM and the IC50 (HBV [6]; Hepatitis B virus) was 16.8 µM.
With C=CC1=C(C)c2cc3[nH]c(cc4nc(cc5[nH]c(cc1n2)c(C)c5CCC(=O)O)C(CCC(=O)O)=C4C)c(C)c3C=C [protoporphyrin IX disodium] the “Inhibitory effect on T/P and substrate binding activity of HBV RT” value (HBV RT; 10 µM compound) was “showed the higher inhibitory effects”.

Source: publication PMC7472185 (Viruses, 2020)
